Experimental data published in ChEMBL document CHEMBL1201862, “PubChem BioAssay data set” (2004).
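Results reflect a 48-hour exposure of cells in 96-well plates to compound at five concentrations. The concentration for 50% growth inhibition is given as GI50.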 Activity calls are given as the source filed them. No stated cut-off is given here; in the data, active = GI50 up to about 1.1 µM and inactive = higher.

Experiments:
Assay in all cases: growth of human tumour cells (NCI), 48 h
[1] = tested on: Malme-3M
[2] = tested on: HCT-15
[3] = tested on: OVCAR-4
[4] = tested on: UO-31
[5] = tested on: M14
[6] = tested on: SNB-75
[7] = tested on: NCI-H226
[8] = tested on: OVCAR-8
[9] = tested on: MDA-MB-435
[10] = tested on: DU-145
[11] = tested on: MCF7
[12] = tested on: NCI-H460
[13] = tested on: NCI-H522
[14] = tested on: 786-0
[15] = tested on: OVCAR-3
[16] = tested on: IGROV-1
[17] = tested on: K562
[18] = tested on: SK-MEL-28
[19] = tested on: SN12C
[20] = tested on: DLD-1

| Structure (SMILES) | GI50 [1] | GI50 [2] | GI50 [3] | GI50 [4] | GI50 [5] | GI50 [6] | GI50 [7] | GI50 [8] | GI50 [9] | GI50 [10] | GI50 [11] | GI50 [12] | GI50 [13] | GI50 [14] | GI50 [15] | GI50 [16] | GI50 [17] | GI50 [18] | GI50 [19] | GI50 [20] |
| --- | --- | --- | --- | --- | --- | --- | --- | --- | --- | --- | --- | --- | --- | --- | --- | --- | --- | --- | --- | --- |
| Cc1ccc(S(=O)(=O)NC(=O)OC23COCN2COC3)cc1 | > 100 µM (inactive) | > 100 µM | > 100 µM (inactive) | > 100 µM (inactive) | > 100 µM (inactive) | > 100 µM (inactive) | > 100 µM (inactive) | > 100 µM (inactive) | > 100 µM (inactive) | > 100 µM (inactive) | 91 µM (inactive) | > 100 µM (inactive) | > 100 µM (inactive) | > 100 µM (inactive) | > 100 µM (inactive) | > 100 µM (inactive) | > 100 µM (inactive) | > 100 µM (inactive) | > 100 µM (inactive) | – |
| Cc1nc2ccccc2c(=O)n1NC(=S)Nc1ccccc1 | > 100 µM (inactive) | > 100 µM | 91.2 µM (inactive) | 88.9 µM (inactive) | > 100 µM (inactive) | 4.99 µM (inactive) | 37.7 µM (inactive) | > 100 µM (inactive) | – | – | – | > 100 µM (inactive) | > 100 µM (inactive) | > 100 µM (inactive) | – | > 100 µM (inactive) | > 100 µM (inactive) | > 100 µM (inactive) | > 100 µM (inactive) | > 100 µM (inactive) |
| CCc1cc(CCC(=O)Nc2ccccc2[N+](=O)[O-])nc(S)n1 | – | > 100 µM | – | > 100 µM (inactive) | > 100 µM (inactive) | – | > 100 µM (inactive) | > 100 µM (inactive) | – | – | – | > 100 µM (inactive) | – | > 100 µM (inactive) | > 100 µM (inactive) | > 100 µM (inactive) | > 100 µM (inactive) | > 100 µM (inactive) | – | > 100 µM (inactive) |
| CCOc1ncnc2ccc(Cl)c(I)c12 | > 100 µM (inactive) | > 100 µM | 56.6 µM (inactive) | 27.7 µM (inactive) | 75.2 µM (inactive) | – | – | > 100 µM (inactive) | – | – | – | 80.7 µM (inactive) | > 10 µM (inactive) | 87.9 µM (inactive) | > 100 µM (inactive) | 38.7 µM (inactive) | 88.7 µM (inactive) | > 100 µM (inactive) | 67.5 µM (inactive) | 99.1 µM (inactive) |
| Clc1ccccc1C1SCc2nc3ccccc3n21 (stereo unspecified) | 17.7 µM (inactive) | 22.6 µM | 18 µM (inactive) | – | 19.1 µM (inactive) | 3.97 µM (inactive) | 26.2 µM (inactive) | 24.2 µM (inactive) | – | – | – | 30.1 µM (inactive) | 9.55 µM (inactive) | 25.7 µM (inactive) | 14.1 µM (inactive) | 33.6 µM (inactive) | 21.6 µM (inactive) | 28.5 µM (inactive) | 18 µM (inactive) | 33.2 µM (inactive) |
| C=C(COC(C)=O)CC(/C=C(\C)CCC=C(C)C)OC(C)=O (stereo unspecified) | – | > 100 µM | > 100 µM (inactive) | > 100 µM (inactive) | > 100 µM (inactive) | 50.6 µM (inactive) | > 100 µM (inactive) | > 100 µM (inactive) | – | – | – | > 100 µM (inactive) | > 100 µM (inactive) | > 100 µM (inactive) | > 100 µM (inactive) | > 100 µM (inactive) | > 100 µM (inactive) | > 100 µM (inactive) | > 100 µM (inactive) | > 100 µM (inactive) |
| COC(=O)C(C(=O)C(=O)NC1=C(Cl)C(=O)c2ccccc2C1=O)c1csc(-n2nc(-c3ccccc3)cc2-c2ccccc2)n1 (stereo unspecified) | 19.1 µM (inactive) | > 100 µM | > 100 µM (inactive) | 6.08 µM (inactive) | > 100 µM (inactive) | 1.65 µM (inactive) | > 100 µM (inactive) | > 100 µM (inactive) | – | – | – | > 100 µM (inactive) | > 100 µM (inactive) | > 100 µM (inactive) | > 100 µM (inactive) | > 100 µM (inactive) | 20.9 µM (inactive) | – | > 100 µM (inactive) | > 100 µM (inactive) |
| COC1OC(COCc2ccc(Cl)cc2)C(OCc2ccc(Cl)cc2)C1O (stereo unspecified) | 15.8 µM (inactive) | 16 µM | 20.6 µM (inactive) | 15.1 µM (inactive) | 16.1 µM (inactive) | 17.5 µM (inactive) | – | 26.2 µM (inactive) | – | – | – | 17.4 µM (inactive) | 12.8 µM (inactive) | 15 µM (inactive) | 19.7 µM (inactive) | 22.8 µM (inactive) | 16.2 µM (inactive) | 16.9 µM (inactive) | 14.9 µM (inactive) | 16.2 µM (inactive) |
| CCCCCCC(C)OC(=O)/C=C(\CC(=O)OC(C)CCCCCC)C(=O)OC(C)CCCCCC (stereo unspecified) | > 100 µM (inactive) | > 100 µM | > 100 µM (inactive) | > 100 µM (inactive) | > 100 µM (inactive) | > 100 µM (inactive) | > 100 µM (inactive) | > 100 µM (inactive) | – | – | – | > 100 µM (inactive) | > 100 µM (inactive) | > 100 µM (inactive) | > 100 µM (inactive) | > 100 µM (inactive) | – | > 100 µM (inactive) | > 100 µM (inactive) | > 100 µM (inactive) |
| O=C(CCn1[nH]c(=O)c(Cl)c(Cl)c1=O)NO | > 100 µM (inactive) | > 100 µM | > 100 µM (inactive) | > 100 µM (inactive) | > 100 µM (inactive) | > 100 µM (inactive) | > 100 µM (inactive) | > 100 µM (inactive) | – | – | – | > 100 µM (inactive) | > 100 µM (inactive) | > 100 µM (inactive) | > 100 µM (inactive) | > 100 µM (inactive) | > 100 µM (inactive) | > 100 µM (inactive) | > 100 µM (inactive) | > 100 µM (inactive) |
| CCn1c(=N)sc2nc3ccccc3n2c1=O | > 100 µM (inactive) | > 100 µM | > 100 µM (inactive) | 14.9 µM (inactive) | > 100 µM (inactive) | 40 µM (inactive) | > 100 µM (inactive) | > 100 µM (inactive) | > 100 µM (inactive) | > 100 µM (inactive) | 9.48 µM (inactive) | > 100 µM (inactive) | > 100 µM (inactive) | > 100 µM (inactive) | > 100 µM (inactive) | > 100 µM (inactive) | > 100 µM (inactive) | > 100 µM (inactive) | > 100 µM (inactive) | – |
| Cc1cc(=O)n2nc(CCl)sc2n1 | 12.8 µM (inactive) | 13.6 µM | 17.8 µM (inactive) | 14.3 µM (inactive) | 11.2 µM (inactive) | 10.8 µM (inactive) | 13.9 µM (inactive) | 16.7 µM (inactive) | 12.7 µM (inactive) | 18.1 µM (inactive) | 13.8 µM (inactive) | 11.4 µM (inactive) | 5.57 µM (inactive) | 15.7 µM (inactive) | 14.9 µM (inactive) | 14.9 µM (inactive) | 17.8 µM (inactive) | 13.2 µM (inactive) | 14.3 µM (inactive) | – |
| COC12OCCN(CCO)C1=CC(=O)C1(C)N=NC(C)C12 (stereo unspecified) | > 100 µM (inactive) | > 100 µM | – | > 100 µM (inactive) | > 100 µM (inactive) | > 100 µM (inactive) | > 100 µM (inactive) | > 100 µM (inactive) | – | – | – | > 100 µM (inactive) | > 100 µM (inactive) | > 100 µM (inactive) | > 100 µM (inactive) | > 100 µM (inactive) | > 100 µM (inactive) | > 100 µM (inactive) | > 100 µM (inactive) | > 100 µM (inactive) |
| COc1ccc2nc(NC(=O)C(=O)CC(=O)c3ccc(Cl)cc3)sc2c1 | > 100 µM (inactive) | > 100 µM | 20.9 µM (inactive) | 69 µM (inactive) | > 100 µM (inactive) | 29.4 µM (inactive) | 96.2 µM (inactive) | > 100 µM (inactive) | – | – | – | > 100 µM (inactive) | 92.3 µM (inactive) | > 100 µM (inactive) | > 100 µM (inactive) | 73.1 µM (inactive) | – | > 100 µM (inactive) | > 100 µM (inactive) | > 100 µM (inactive) |
| OC/C=C(\I)CCCOCOCc1ccccc1 | – | 38.5 µM | 24.5 µM (inactive) | 25.4 µM (inactive) | 31.1 µM (inactive) | 53.1 µM (inactive) | 27.4 µM (inactive) | 41.4 µM (inactive) | – | – | – | 40.7 µM (inactive) | 23.3 µM (inactive) | 28.8 µM (inactive) | 30.8 µM (inactive) | 98.2 µM (inactive) | 40 µM (inactive) | 37.9 µM (inactive) | 42.9 µM (inactive) | > 100 µM (inactive) |
| O=c1oc2c3ccc4ccccc4c3n(CCN3CCOCC3)c2c2ccccc12 | > 100 µM (inactive) | – | > 100 µM (inactive) | 0.622 µM (active) | 58.5 µM (inactive) | 6.08 µM (inactive) | – | > 100 µM (inactive) | – | – | – | 0.755 µM (active) | 2.48 µM (inactive) | 6.44 µM (inactive) | > 100 µM (inactive) | > 100 µM (inactive) | 3.89 µM (inactive) | > 100 µM (inactive) | – | > 100 µM (inactive) |
| COc1ccc(NC(=O)c2cc(OC)cc(OC)c2)cc1 | 36.6 µM (inactive) | 6.93 µM | > 100 µM (inactive) | 44 µM (inactive) | 47.3 µM (inactive) | 27.9 µM (inactive) | 31.7 µM (inactive) | 80.5 µM (inactive) | – | – | – | 9.89 µM (inactive) | 13.6 µM (inactive) | > 85.7 µM (inactive) | 12.1 µM (inactive) | 28 µM (inactive) | 4.74 µM (inactive) | 45.7 µM (inactive) | 67 µM (inactive) | 17.1 µM (inactive) |
